Data as given in patent publication US6008188A, “Cytokine potentiator and pharmaceutical formulation for cytokine administration” (Kanebo Limited, priority 1994, dated 1999).

Key:
healthy panelists = details: in vivo
Method: Aqueous solutions of N-methyl-L-serine, ethanolamine and N-methylethanolamine that had been adjusted to have a pH 7 with hydrochloric acid were used as test samples. These test samples were applied to 19 healthy panelists.
One hour and 24 hours after the removal of the patch, the condition of the skin of each panelist was observed.

[1] = test system: Japanese native, male house rabbits; details: rabbit, in vivo
Method: Aqueous solutions of N-Methyl-L-Serine, Ethanolamine and N-Methylethanolamine that had been adjusted to have a pH of 7 with hydrochloric acid were used as test samples.
Using Japanese native, male house rabbits (body weight: about 3 kg), the test samples were tested according to the Draize method (see Appraisal of the Safety of Chemicals in Foods, Drugs and Cosmetics, p. 46, 1959, edited and published by the Deitorial Committee, Association of Food and Drug Officials of U.S.A.).
24 hours after the last application, the tested area of each rabbit was checked to score the erythema, edema, scab and rhagades, if any, formed in the area.
The erythema score, the edema score, the scab score, and the rhagades score as referred to in Table 17 were summed up to obtain the cumulative stimulation score.
Next, from the cumulative stimulation scores, obtained were the degrees of stimulation with N-Methyl-L-Serine, Ethanolamine and N-Methylethanolamine,according to the criteria shown in Table 18 below.

Q: For `CN[C@@H](CO)C(=O)O` [Example 1, N-methyl-L-serine], which panelists with erythema (healthy panelists) is on record?
A: only one panelists had minor erythema

Q: What about the “cumulative stimulation to the skin (in words)” value [1] of the same compound?
A: low
